Some test systems named below: OVCAR-4 ovarian; U251 CNS; NCI-H460 lung; SF-295 CNS; MOLT-4 leukemia; UO-31 renal; SK-MEL-28 melanoma; COLO 205 colon; A549 NSCLC; UACC-62 melanoma.
What all share (assay): NCI-60 cell line screen, 48 h

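Results reflect a 48-hour exposure of cells in 96-well plates to compound at five concentrations. At the GI50, growth is halved. TGI is the concentration that stops growth completely.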

In the case of `Oc1ccc(NCn2c(=S)sc3ccccc32)cc1`, the TGI in the assay on OVCAR-4 ovarian, with U251 CNS, in the assay on NCI-H460 lung, in the assay with SF-295 CNS, in the assay with MOLT-4 leukemia and in the assay on UO-31 renal was above 100 µM throughout. Besides, the TGI in the assay with SK-MEL-28 melanoma, with COLO 205 colon, with A549 NSCLC and with UACC-62 melanoma was above 100 µM in each case.
For the molecule `CON(C)C(=O)C(Cc1ccccc1)NC(=O)OCc1ccccc1` (configuration not stated), the TGI with OVCAR-4 ovarian, in the assay on U251 CNS, in the assay with NCI-H460 lung, in the assay with SF-295 CNS, in the assay on MOLT-4 leukemia and with UO-31 renal was above 100 µM in each case. Besides, the TGI in the assay on SK-MEL-28 melanoma, in the assay with COLO 205 colon, in the assay with A549 NSCLC and in the assay with UACC-62 melanoma was above 100 µM in each case.
As to `CO[C@](C(=O)OC[C@H]1[C@@H](COC(C)=O)[C@@H]2O[C@H]1c1cc3c(cc12)OCO3)(c1ccccc1)C(F)(F)F`, the TGI with OVCAR-4 ovarian is above 100 µM; in the assay with U251 CNS it was above 100 µM; in the assay on NCI-H460 lung, 49.6 µM; with SF-295 CNS it was 58.6 µM; with MOLT-4 leukemia it was above 100 µM; in the assay with UO-31 renal, 55.4 µM. Further, the TGI with SK-MEL-28 melanoma is above 100 µM; in the assay on COLO 205 colon, 93.2 µM; with A549 NSCLC, 94.3 µM; in the assay with UACC-62 melanoma, above 100 µM.
With `CCCCCCOc1ccc(/C=N/Nc2cc(C)nc3ccc(Cl)cc23)cc1`, the GI50 in the assay on OVCAR-4 ovarian is 1.75 µM; with U251 CNS it was 1.9 µM; in the assay with SF-295 CNS, 1.73 µM; in the assay on MOLT-4 leukemia, 1.85 µM; with UO-31 renal, 1.5 µM; in the assay on SK-MEL-28 melanoma, 1.76 µM. In addition, the GI50 in the assay on COLO 205 colon was 1.58 µM; with A549 NSCLC, 1.93 µM; in the assay on UACC-62 melanoma, 1.78 µM. In addition, the TGI in the assay with OVCAR-4 ovarian was determined as 3.18 µM; with U251 CNS, 3.43 µM; in the assay on SF-295 CNS it was 3.24 µM; with MOLT-4 leukemia it was 4.05 µM; in the assay with UO-31 renal it was 2.88 µM; in the assay on SK-MEL-28 melanoma it was 3.18 µM. Further, the TGI with COLO 205 colon worked out at 3.04 µM; in the assay on A549 NSCLC, 3.73 µM; with UACC-62 melanoma it was 3.27 µM.
`CCn1cnc2c(=S)nc(N)[nH]c21`: the TGI in the assay with U251 CNS, with NCI-H460 lung, with SF-295 CNS, in the assay with MOLT-4 leukemia, in the assay on UO-31 renal and with SK-MEL-28 melanoma was above 100 µM throughout. The TGI in the assay with COLO 205 colon, in the assay with A549 NSCLC and in the assay with UACC-62 melanoma was above 100 µM in each case.
Turning to `O=C(CC1Sc2ccccc2NC1=O)Nc1ccccc1[N+](=O)[O-]` (configuration not stated), the TGI with OVCAR-4 ovarian, with U251 CNS, with NCI-H460 lung, in the assay on SF-295 CNS, with MOLT-4 leukemia and with UO-31 renal was above 100 µM in each case. Besides, the TGI in the assay with SK-MEL-28 melanoma, with COLO 205 colon, with A549 NSCLC and in the assay with UACC-62 melanoma was above 100 µM each time.
Consider `Cc1ccc(C(=O)OC(C(=O)O)C(OC(=O)c2ccc(C)cc2)C(=O)O)cc1` (configuration not stated) (tested in a mixture with another compound), for which the TGI in the assay with OVCAR-4 ovarian was determined as 21.6 µM; with U251 CNS, 22.2 µM; in the assay with NCI-H460 lung, 10.3 µM; in the assay with SF-295 CNS it was 16.7 µM; in the assay on MOLT-4 leukemia, 14.3 µM; in the assay with UO-31 renal, 14.5 µM. Further, the TGI came to 19.7 µM with SK-MEL-28 melanoma, 10.5 µM with COLO 205 colon, 22.3 µM in the assay with A549 NSCLC and 19.3 µM with UACC-62 melanoma.
As for `O=C1OC(c2ccccc2)=N/C1=C\c1ccc([N+](=O)[O-])cc1`, the TGI is above 100 µM with OVCAR-4 ovarian; above 100 µM with U251 CNS; above 100 µM in the assay on NCI-H460 lung; above 100 µM with SF-295 CNS; 58.1 µM in the assay on MOLT-4 leukemia; above 100 µM with UO-31 renal. The TGI in the assay with SK-MEL-28 melanoma was above 100 µM; with COLO 205 colon, above 100 µM; with A549 NSCLC, above 100 µM; with UACC-62 melanoma it was 96 µM.
As for `CCOC(=O)c1csc(NC(=O)CN2CCCC2)n1`, the TGI in the assay on OVCAR-4 ovarian, in the assay with U251 CNS, in the assay with NCI-H460 lung, in the assay with SF-295 CNS, with MOLT-4 leukemia and in the assay on UO-31 renal was above 100 µM each time. For the same molecule, the TGI with SK-MEL-28 melanoma, in the assay on COLO 205 colon, in the assay with A549 NSCLC and in the assay with UACC-62 melanoma was above 100 µM throughout.

The record behind these values is PubChem BioAssay (NCI).
